According to PMC7083851, “Extended pharmacodynamic responses observed upon PROTAC-mediated degradation of RIPK2” (Communications Biology, 2020):
Several values for one entry are separate records, joined by “and”; a condition that tells them apart may be missing. Identical values can stand only once. Like-named read-outs stand apart in the source and are kept apart here.

Assays:
[1] = system: L18-MDP-stimulated TNFα release; assay: TNFα after ex vivo L18-MDP stimulation of blood from dosed rats; format: in vivo, rat; details: for TNFa level after ex vivo L18-MDP stimulation vs pre-dose, individual rat: 20 mg/kg SC single dose, 7-day study
Experimental: Male CD or Wistar Han rats (7–9 weeks old, Charles River UK Ltd.) were randomly allocated to treatment groups upon arrival. Female CD rats (7–8 weeks old on arrival, Charles River Ltd.) were placed into groups using a randomization schedule based on body weight prior to the study start. All animals were acclimatized for a minimum of one week prior to the experiment commencing.
Subcutaneous PROTAC solution formulations were prepared on the day of dosing as outlined below and filtered through a 0.22 µm Millex PVDF filter (Millipore) prior to PROTAC administration. PROTAC 4 was dissolved in saline with the pH adjusted to 5.0 with sodium hydroxide (1 M).
Ex vivo stimulation of rat blood with L18-MDP for PD: PPD blood samples taken prior to PROTAC administration or at fixed timepoints post PROTAC administration through the course of the study, were treated ex vivo with 100 ng/mL L18-MDP (Invivogen) or vehicle (0.1% DMSO) and incubated for 4 h. Following centrifugation, plasma was collected for cytokines analysis as detailed in cytokines assay section. Additionally, RIPK2 levels were determined in PBMCs isolated from blood and where collected, in sampled colon tissue as described in the text.
(§1) Cytokine measurement assay: Cytokine levels were measured in rat plasma or rat PBMCs cell culture supernatants using rat V-Plex TNFα, in human plasma or human PBMCs cell culture supernatants with either TNFα tissue culture or 7-plex kit. Rat serum and tissues samples from the in vivo L18-MDP acute inflammation model were analyzed using the rat TNFα, Il-6 and IL-8 U-Plex kits. All kits provided by Meso Scale Discovery (MSD). Levels of cytokines spontaneously released from human colon biopsies cell culture supernatants were measured using Human IL-1 beta/IL-1F2 DuoSet ELISA (Bio-techne), Human IL-6 ELISA (Immunotools) and Human TNF-alpha DuoSet ELISA (Bio-techne). All samples were processed accordingly to the manufacturer’s instructions. The MSD plates were analyzed using the MSD sector imager 6000 plate reader and cytokines concentration (pg/ml) was obtained by using the MSD DISCOVERY WORKBENCH software version 4.0.12.1
Statistics and reproducibility: All data were represented as percentage of the control sample: DMSO treated cells for the in vitro assays and the pre-dose or vehicle sample for the in vivo experiments.

[2] = system: L18-MDP-induced TNFα release; assay: L18-MDP-induced cytokine release (TNFα, IL1β, IL-6, IL-8, IL-10) in human PBMCs; format: cell-based; details: L18-MDP-induced TNFα release, human PBMCs, 6 h
Experimental: PBMCs were isolated from leukodepletion filter from platelet aphaeresis supplied by National Health System Blood and Transplant—NHSBT Apheresed at NHBST.
Before treatment with compound or vehicle, THP1 cells, human and rat PBMCs were counted using Vi-Cell cell counter (Invitrogen) and adjusted to a final cell density of […] using complete growth medium. Cells or whole blood were treated with vehicle (0.1% DMSO) or fixed concentrations of compound up to 1 μM in half log unit increments and incubated for the time period indicated in the figure.
Where the assessment of cytokines was performed, L18-MDP was added to the cell culture media (1 μg/ml) or to the rat blood samples (100 ng/ml) and samples were incubated for up to 4 h. […] Samples were them spun down at 1000 g and the cell culture supernatant, plasma or serum were collected for cytokines assessment, while cell pellets were used for RIPK2 and/or cIAP1, cIAP2, and XIAP levels analysis via immunoblotting.
as §1
In vitro experimental data were analyzed using a 4-parameter logistic equation in GraphPad Prism 5.0.4. to generate an estimate of the half-maximal concentration and maximal degradation, DC50 and Dmax value respectively, for concentration-degradation relationships. Cytokine levels were analyzed in a similar manner to yield IC50 and Imax values. […] Where analysis to a sigmoidal relationship was not possible, the data points are shown as mean ± s.e.m.

[3] = Blood concentrations after subcutaneous dosing in rat PK/PD studies; format: in vivo
Experimental: Female CD rats (7–8 weeks old on arrival, Charles River Ltd.) were placed into groups using a randomization schedule based on body weight prior to the study start. All animals were acclimatized for a minimum of one week prior to the experiment commencing. […] PROTAC 4 was dissolved in saline with the pH adjusted to 5.0 with sodium hydroxide (1 M).

SMILES: CN[C@@H](C)C(=O)N[C@H](C(=O)N1CCC[C@H]1c1nc(C(=O)c2ccc(F)cc2)cs1)C1CCN(C(=O)c2cnc(N3CCN(CCOc4cc5ncnc(Nc6n[nH]c(C)c6C)c5cc4S(=O)(=O)C(C)(C)C)CC3)nc2)CC1 [PROTAC 4]
- TNFa level after ex vivo L18-MDP stimulation vs pre-dose, individual rat ([1]; 8 h): 9.24% and 8.84% and 7.78% and 9.53% and 3.34%
- TNFa level after ex vivo L18-MDP stimulation vs pre-dose, individual rat ([1]; 24 h): 3.87% and 3.74% and 8.65% and 6.37% and 4.55%
- TNFa level after ex vivo L18-MDP stimulation vs pre-dose, individual rat ([1]; 72 h): 10.34% and 56.63% and 10.25% and 43.76% and 3.57%
- TNFa level after ex vivo L18-MDP stimulation vs pre-dose, individual rat ([1]; 168 h): 12.29% and 8.70% and 24.16% and 13.36% and 15.12%
- TNFα inhibition following ex vivo L18-MDP stimulation in rat blood ([1]; single 20 mg/kg SC, throughout the 7-day study): > 70%
- hPBMC MDP pIC50 ± SEM, 6 h (n = 3) [2]: 8.0 ± 0.5
- blood concentration, individual rat ([3]; 5 mg/kg SC, 14-day study, 0.25 h): 79.2 ng/mL and 80.8 ng/mL and 137 ng/mL
- PK, blood concentration, individual rat ([3]; 20 mg/kg SC single dose, 7-day study, 0.25 h): 142.1 ng/mL and 262.3 ng/mL and 219.2 ng/mL and 88.3 ng/mL and 114.7 ng/mL
- PK, blood concentration, individual rat ([3]; 20 mg/kg SC single dose, 7-day study, 0.5 h): 113.3 ng/mL and 220.7 ng/mL and 177.2 ng/mL and 88.4 ng/mL and 248.8 ng/mL
- PK, blood concentration, individual rat ([3]; 20 mg/kg SC single dose, 7-day study, 1 h): 131.0 ng/mL and 198.9 ng/mL and 114.6 ng/mL and 195.5 ng/mL
- PK, blood concentration, individual rat ([3]; 20 mg/kg SC single dose, 7-day study, 2 h): 110.9 ng/mL and 278.2 ng/mL and 204.9 ng/mL and 96.5 ng/mL and 292.6 ng/mL
- PK, blood concentration, individual rat ([3]; 20 mg/kg SC single dose, 7-day study, 4 h): 211.6 ng/mL and 307.5 ng/mL and 375.8 ng/mL and 186.8 ng/mL and 240.9 ng/mL
- PK, blood concentration, individual rat ([3]; 20 mg/kg SC single dose, 7-day study, 8 h): 104.7 ng/mL and 227.5 ng/mL and 262.0 ng/mL and 193.4 ng/mL and 268.5 ng/mL
- PK, blood concentration, individual rat ([3]; 20 mg/kg SC single dose, 7-day study, 24 h): 240.6 ng/mL and 261.7 ng/mL and 347.0 ng/mL and 497.6 ng/mL and 315.9 ng/mL and 347 ng/mL
- PK, blood concentration, individual rat ([3]; 20 mg/kg SC single dose, 7-day study, 72 h): 253.7 ng/mL and 143.8 ng/mL and 111.7 ng/mL and 90.2 ng/mL and 121.5 ng/mL and 90.15 ng/mL
- PK, blood concentration, individual rat ([3]; 20 mg/kg SC single dose, 7-day study, 168 h): 15.0 ng/mL and 7.4 ng/mL and 9.6 ng/mL and 9.4 ng/mL and 6.1 ng/mL and 15.02 ng/mL and 7.438 ng/mL and 9.644 ng/mL and 9.399 ng/mL and 6.103 ng/mL
- blood concentration, individual rat ([3]; 20 mg/kg SC, 14-day study, 0.25 h): 103 ng/mL and 111 ng/mL and 92.3 ng/mL and 10.6 ng/mL and 39.4 ng/mL
- blood concentration, individual rat ([3]; 20 mg/kg SC, 14-day study, 0.5 h): 115 ng/mL and 140 ng/mL and 82.5 ng/mL and 99.9 ng/mL
- blood concentration, individual rat ([3]; 20 mg/kg SC, 14-day study, 1 h): 173 ng/mL and 63.3 ng/mL and 90.1 ng/mL and 113 ng/mL and 45.9 ng/mL
- blood concentration, individual rat ([3]; 20 mg/kg SC, 14-day study, 2 h): 141 ng/mL and 113 ng/mL and 120 ng/mL and 223 ng/mL
- blood concentration, individual rat ([3]; 20 mg/kg SC, 14-day study, 4 h): 226 ng/mL and 313 ng/mL and 572 ng/mL and 294 ng/mL and 206 ng/mL
- blood concentration, individual rat ([3]; 20 mg/kg SC, 14-day study, 8 h): 159 ng/mL and 180 ng/mL and 329 ng/mL and 167 ng/mL and 200 ng/mL
- blood concentration, individual rat ([3]; 20 mg/kg SC, 14-day study, 24 h): 698 ng/mL and 518 ng/mL and 213 ng/mL and 503 ng/mL and 150 ng/mL
- blood concentration, individual rat ([3]; 20 mg/kg SC, 14-day study, 72 h): 14.1 ng/mL and 69.4 ng/mL and 30 ng/mL and 33.4 ng/mL and 57.6 ng/mL
- blood concentration, individual rat ([3]; 20 mg/kg SC, 14-day study, 168 h): 3.47 ng/mL and 10.5 ng/mL and 2.32 ng/mL and 3.82 ng/mL and 4.88 ng/mL
- blood concentration, individual rat ([3]; 20 mg/kg SC, 14-day study, 240 h): 1.11 ng/mL and 2.09 ng/mL and 1.34 ng/mL
- concentration at 7 days ([3]; rat, blood, sc, 20 mg/kg, rat, single 20 mg/kg SC, after 7 days, read-out: compound levels in blood at later time-points): < 10 ng/mL
- concentration at 1 h ([3]; rat, blood, subcutaneous, 20 mg/kg, 20 mg/kg SC single dose, 7-day study, 1 h, read-out: PK, blood concentration, individual rat): 132 ng/mL
- concentration at 0.5 h ([3]; rat, blood, subcutaneous, 20 mg/kg, 20 mg/kg SC, 14-day study, 0.5 h, read-out: blood concentration, individual rat): 126 ng/mL
- concentration at 2 h ([3]; rat, blood, subcutaneous, 20 mg/kg, 20 mg/kg SC, 14-day study, 2 h, read-out: blood concentration, individual rat): 124 ng/mL
- concentration at 240 h ([3]; rat, blood, subcutaneous, 20 mg/kg, 20 mg/kg SC, 14-day study, 240 h, read-out: blood concentration, individual rat): 1.68 ng/mL
- concentration at […] ([3]; rat, blood, subcutaneous, 20 mg/kg, 20 mg/kg SC, 14-day study, […], read-out: blood concentration, individual rat): 1.71 ng/mL
- concentration at 24 h ([3]; rat, whole blood, subcutaneous, 1 mg/kg, 1 mg/kg SC, 14-day study, 24 h, read-out: blood concentration, individual rat): 7.14 ng/mL
- concentration at 72 h ([3]; rat, whole blood, subcutaneous, 1 mg/kg, 1 mg/kg SC, 14-day study, 72 h, read-out: blood concentration, individual rat): 1.67 ng/mL
- concentration at 24 h ([3]; rat, whole blood, subcutaneous, 5 mg/kg, 5 mg/kg SC, 14-day study, 24 h, read-out: blood concentration, individual rat): 29.2 ng/mL
- concentration at 168 h ([3]; rat, whole blood, subcutaneous, 5 mg/kg, 5 mg/kg SC, 14-day study, 168 h, read-out: blood concentration, individual rat): 4.77 ng/mL
- concentration at 240 h ([3]; rat, whole blood, subcutaneous, 5 mg/kg, 5 mg/kg SC, 14-day study, 240 h, read-out: blood concentration, individual rat): 1.13 ng/mL
